# System: YAP/TAZ-TEAD transcription
# Test: Reporter gene assay for measuring the inhibition of YAP/TAZ-TEAD transcription (TEAD-responsive element luciferase reporter in Hek293T cells)
# Type: cell-based
# Conditions: Homo sapiens, HEK-293T, 24 hours incubation
# Description: Hek293T cells are cultured in DMEM supplemented with 10% fetal bovine serum, Sodium pyruvate, Sodium bicarbonate, L-glutamine. The cells are harvested and transiently transfected with TEAD-responsive element luciferase reporter. Transfected cells are plated in 384-wells plate containing pre-diluted compounds. After 24 hours incubation at 37° C./5% CO2, assay plates were cooled down to RT and levelled to an equal volume per well, prior to the addition of 25 uL luciferase substrate SteadyLite (Perkin Elmer)/well. The plate was shaken for 10 min at 600 rpm, centrifuged for 1 min at 500 rpm and measured with an Envision reader (PerkinElmer). The amount of relative light units produced by the TEAD reporter is used to calculated percent of inhibition.
# The percent of reporter inhibition was calculated in the presence of a positive control inhibitor (100% inhibition) versus a condition with the presence of the vehicle basal activity of the reporter (0% inhibition). The ability of a test compound to inhibit this activity was determined as: Percentage inhibition=[1−((RLU determined in the presence of vehicle−RLU determined for sample with test compound present) divided by (RLU determined in the presence of vehicle−RLU determined for sample with positive control inhibitor))]*100
# The activities of the example compounds tested are depicted in the table below. The activity ranges A, B and C refer to EC50 values in the reporter gene assay as described as follows: “A”: EC50<1 μM; “B”: 1 μM s EC50≤20 μM and “C”: EC50>20 μM, NT=not tested.
row,SMILES,EC50 [µM]
1,"CNS(=O)(=O)CCN(C)c1ccc(-c2ccccc2)cc1-c1ccn(Cc2cccnc2)n1 [compound 067, N-methyl-2-(methyl(3-(1-(pyridin-3-ylmethyl)-1H-pyrazol-3-yl)-[1,1′-biphenyl]-4-yl)amino)ethane-1-sulfonamide]",1 to 20
2,"CNS(=O)(=O)CC(=O)Nc1ccc(-c2ccccc2)cc1-c1ccn(Cc2cccnc2)n1 [compound 082, 2-(N-methylsulfamoyl)-N-(3-(1-(pyridin-3-ylmethyl)-1H-pyrazol-3-yl)-[1,1′-biphenyl]-4-yl)acetamide]",1 to 20
3,"C=CC(=O)NC1(c2ccc(-c3ccc(F)cc3)cc2-c2ccn(C)n2)CC1 [Cpd. No. 256, N-(1-(4′-fluoro-3-(1-methyl-1H-pyrazol-3-yl)-[1,1′-biphenyl]-4-yl)cyclopropyl)acrylamide]",< 1
4,"CN1CCC(Cn2ccc(-c3cccc(-c4ccccc4)c3)n2)CC1 [compound 032, 4-((3-([1,1′-biphenyl]-3-yl)-1H-pyrazol-1-yl)methyl)-1-methylpiperidine]",1 to 20
5,"C=CC(=O)NCc1cnc(-c2ccc(F)cc2)cc1-c1cn(C(F)F)nn1 [Cpd. No. 229, N-((4-(1-(difluoromethyl)-1H-1,2,3-triazol-4-yl)-6-(4-fluorophenyl)pyridin-3-yl)methyl)acrylamide]",< 1
6,"C=CC(=O)NCc1ccc(-c2ccc(F)cc2)nc1-c1nnn(C(F)F)n1 [compound 199, N-((2-(2-(difluoromethyl)-2H-tetrazol-5-yl)-6-(4-fluorophenyl)pyridin-3-yl)methyl)acrylamide]",< 1
7,"CNS(=O)(=O)CCNc1ccc(-c2ccc(C(F)(F)F)cc2)cc1-c1ccn(CCO)n1 [compound 112, 2-((3-(1-(2-hydroxyethyl)-1H-pyrazol-3-yl)-4′-(trifluoromethyl)-[1,1′-biphenyl]-4-yl)amino)-N-methylethane-1-sulfonamide]",< 1
8,"C=CC(=O)NCc1ccc(-c2ccc(F)cc2)cc1-c1ccn(CC(C)C)n1 [compound 152, N-((4′-fluoro-3-(1-isobutyl-1H-pyrazol-3-yl)-[1,1′-biphenyl]-4-yl)methyl)acrylamide]",< 1
9,"COc1cccc(Cn2ccc(-c3cccc(-c4ccccc4)c3)n2)c1 [compound 019, 3-([1,1′-biphenyl]-3-yl)-1-(3-methoxybenzyl)-1H-pyrazole]",1 to 20
10,"O=C(Cc1cccnc1)Nc1cccc(-c2ccccc2)c1 [compound 048, N—([1,1′-biphenyl]-3-yl)-2-(pyridin-3-yl)acetamide]",1 to 20
11,"CCC(=O)NCc1ccc(-c2ccc(F)cc2)cc1-n1ccc(C)n1 [compound 242, N-((4′-fluoro-3-(3-methyl-1H-pyrazol-1-yl)-[1,1′-biphenyl]-4-yl)methyl)propionamide]",> 20
12,"CNS(=O)(=O)CCNc1ccc(-c2cc(F)ccc2F)cc1-c1ccn(Cc2cccnc2)n1 [compound 092, 2-((2′,5′-difluoro-3-(1-(pyridin-3-ylmethyl)-1H-pyrazol-3-yl)-[1,1′-biphenyl]-4-yl)amino)-N-methylethane-1-sulfonamide]",< 1
13,"Cn1ccc(-c2cn(-c3ccc(F)cc3)c(=O)cc2CNS(C)(=O)=O)n1 [compound 237, N-((1-(4-fluorophenyl)-5-(1-methyl-1H-pyrazol-3-yl)-2-oxo-1,2-dihydropyridin-4-yl)methyl)methanesulfonamide]",> 20
14,"C=CC(=O)NCc1ccc(-c2ccc(F)cc2)cc1-c1ccnn1C [compound 163, N-((4′-fluoro-3-(1-methyl-1H-pyrazol-5-yl)-[1,1′-biphenyl]-4-yl)methyl)acrylamide]",> 20
15,"CNS(=O)(=O)CCNc1ccc(-c2ccc(OC)cc2)cc1-c1ccn(Cc2cccnc2)n1 [compound 111, 2-((4′-methoxy-3-(1-(pyridin-3-ylmethyl)-1H-pyrazol-3-yl)-[1,1′-biphenyl]-4-yl)amino)-N-methylethane-1-sulfonamide]",< 1
16,CNS(=O)(=O)CCNc1ccc(-c2cccc(C(F)(F)F)c2)cc1-c1ccn(Cc2cccnc2)n1 [compound 089],< 1
17,"N#Cc1cccc(Cn2ccc(-c3cccc(-c4ccccc4)c3)n2)c1 [compound 020, 3-((3-([1,1′-biphenyl]-3-yl)-1H-pyrazol-1-yl)methyl)benzonitrile]",1 to 20
18,"Cn1ccc(Cn2ccc(-c3cccc(-c4ccccc4)c3)n2)cc1=O [compound 024, 4-((3-([1,1′-biphenyl]-3-yl)-1H-pyrazol-1-yl)methyl)-1-methylpyridin-2(1H)-one]",1 to 20
19,"C=CC(=O)NCc1ccc(-c2ccc(F)cc2)nc1-c1ccnn1C1CC1 [compound 197, N-((2-(1-cyclopropyl-1H-pyrazol-5-yl)-6-(4-fluorophenyl)pyridin-3-yl)methyl)acrylamide]",1 to 20

row,SMILES,EC50 [µM]
1,"C=CC(=O)NCc1ccc(-c2ccc(F)cc2)cc1-c1ccn(C2COC2)n1 [compound 154, N-((4′-fluoro-3-(1-(oxetan-3-yl)-1H-pyrazol-3-yl)-[1,1′-biphenyl]-4-yl)methyl)acrylamide]",< 1
2,"CCC(=O)NCc1cnc(-c2ccc(F)cc2)cc1-n1ncc(C)n1 [compound 245, N-((6-(4-fluorophenyl)-4-(4-methyl-2H-1,2,3-triazol-2-yl)pyridin-3-yl)methyl)propionamide]",< 1
3,"C=Cc1ccc(Cn2ccc(-c3cccc(-c4ccccc4)c3)n2)cn1 [compound 033, 5-((3-([1,1′-biphenyl]-3-yl)-1H-pyrazol-1-yl)methyl)-2-vinylpyridine]",1 to 20
4,"C=CC(=O)NCc1cnc(-c2ccn(C(F)F)n2)cc1N1CCC(F)(F)CC1 [compound 222, N-((6-(1-(difluoromethyl)-1H-pyrazol-3-yl)-4-(4,4-difluoropiperidin-1-yl)pyridin-3-yl)methyl)acrylamide]",1 to 20
5,"CC(=O)Nc1cncc(-c2cccc(-c3ccn(Cc4ccccc4)n3)c2)c1 [compound 007, N-(5-(3-(1-benzyl-1H-pyrazol-3-yl)phenyl)pyridin-3-yl)acetamide]",< 1
6,"CNS(=O)(=O)CCNc1ccc(-c2ccc(OC(F)(F)F)cc2)cc1-c1ccn(Cc2cccnc2)n1 [compound 098, N-methyl-2-((3-(1-(pyridin-3-ylmethyl)-1H-pyrazol-3-yl)-4′-(trifluoromethoxy)-[1,1′-biphenyl]-4-yl)amino)ethane-1-sulfonamide]",< 1
7,"CN(C)S(=O)(=O)CCNc1ccc(-c2ccc(F)cc2)nc1-c1ccn(C(F)F)n1 [compound 133, 2-((2-(1-(difluoromethyl)-1H-pyrazol-3-yl)-6-(4-fluorophenyl)pyridin-3-yl)amino)-N,N-dimethylethane-1-sulfonamide]",< 1
8,"C=CC(=O)NCc1ccc(-c2ccc(F)cc2)cc1-c1cccnc1 [compound 164, N-((4′-fluoro-3-(pyridin-3-yl)-[1,1′-biphenyl]-4-yl)methyl)acrylamide]",< 1
9,"c1ccc(Nc2cccc(-c3ccn(Cc4ccccn4)n3)c2)cc1 [compound 044, N-phenyl-3-(1-(pyridin-2-ylmethyl)-1H-pyrazol-3-yl) aniline]",1 to 20
10,"CNC(=O)CCNc1cc(-c2ccccc2)cc(-c2ccn(Cc3cccnc3)n2)c1 [compound 062, N-methyl-3-((5-(1-(pyridin-3-ylmethyl)-1H-pyrazol-3-yl)-[1,1′-biphenyl]-3-yl)amino)propanamide]",1 to 20
11,"O=S1(=O)CCN(c2cc(-c3ccccc3)cc(-c3ccn(Cc4cccnc4)n3)c2)CC1 [compound 055, 4-(5-(1-(pyridin-3-ylmethyl)-1H-pyrazol-3-yl)-[1,1′-biphenyl]-3-yl)thiomorpholine 1,1-dioxide]",1 to 20
12,"C=CC(=O)NCc1ccc(-c2ccc(F)cc2)cc1-c1ccnn1C(F)F [compound 171, N-((3-(1-(difluoromethyl)-1H-pyrazol-5-yl)-4′-fluoro-[1,1′-biphenyl]-4-yl)methyl)acrylamide]",1 to 20
13,"O=S(=O)(F)CCNc1ccc(-c2ccccc2)cc1-c1ccn(Cc2cccnc2)n1 [compound 049, 2-((3-(1-(pyridin-3-ylmethyl)-1H-pyrazol-3-yl)-[1,1′-biphenyl]-4-yl)amino)ethane-1-sulfonyl fluoride]",1 to 20
14,"Cn1ccc(-c2cc(-c3ccccc3)ccc2NCCC(=O)O)n1 [compound 063, 3-((3-(1-methyl-1H-pyrazol-3-yl)-[1,1′-biphenyl]-4-yl)amino)propanoic acid]",< 1
15,"C=CC(=O)NCc1ccc(-c2ccc(F)cc2)nc1-c1ccn(CC2CC2)n1 [compound 195, N-((2-(1-(cyclopropylmethyl)-1H-pyrazol-3-yl)-6-(4-fluorophenyl)pyridin-3-yl)methyl)acrylamide]",< 1
16,"CNS(=O)(=O)CCNc1ccc(-c2ccccc2)cc1-c1ccn(C)n1 [compound 056, N-methyl-2-((3-(1-methyl-1H-pyrazol-3-yl)-[1,1′-biphenyl]-4-yl)amino)ethane-1-sulfonamide]",< 1
17,"CCC(=O)Nc1cncc(-c2cccc(-c3ccn(Cc4ccccc4)n3)c2)c1 [compound 006, N-(5-(3-(1-benzyl-1H-pyrazol-3-yl)phenyl)pyridin-3-yl)propionamide]",1 to 20
18,"CNC(=O)CNc1ccc(-c2ccccc2)cc1-c1ccn(Cc2cccnc2)n1 [compound 074, N-methyl-2-((3-(1-(pyridin-3-ylmethyl)-1H-pyrazol-3-yl)-[1,1′-biphenyl]-4-yl)amino)acetamide]",1 to 20

# From patent US12552772B2, “2-pyrazole anilines and related analogs for inhibiting YAP/TAZ-TEAD” (KATHOLIEKE UNIVERSITEIT LEUVEN, priority 2021, dated 2026)
